Structures are written as SMILES.

Here are results for 2 compounds from US20260069560A1, “COMPOSITIONS AND METHODS OF USE” (UNIVERSITY OF FLORIDA RESEARCH FOUNDATION, INCORPORATED, priority 2022, published 2026).

Assay [1] has as its system primary mouse splenic CD8+ T cells. The assay can be described thus: Bioassay for IFNγ stimulation in primary splenic CD8+ T cells, flow cytometric analysis. The class given is cell-based. The note with it: for IFNγ stimulation from primary splenic CD8+ T cells: synthetic compounds, concentration range 0.01-1 mM. Here is the method: Isolates are cultured in 96-well deep well plates for 3 days under anaerobic conditions in MEGA media. Cell-free supernatant is obtained by filtering cultures by […] syringe filtration. Cell-free supernatant is added to the serum-free culture media of primary mouse splenic CD8+ T cells at a ratio of 1:100, followed by 6 hours of incubation. After incubation, cells are harvested and stained for flow cytometric analysis, which is performed on the BD Fortessa LSR, followed by analysis using FlowJo.
FIGS. 11A-11F illustrate that synthetic cis-Bac430 induces dose-dependent stimulation of IFNγ production. Representative results are shown for IFNγ stimulation from primary splenic CD8+ T cells by cis-Bac430 and trans-Bac430 at a concentration range between 0.01-0.25 mM (FIG. 11A) or between 0.01-1 mM (FIG. 11B). P values calculated using Mann-Whitney U test compared to unstimulated negative control and PMA/Ionomycin-stimulated positive control. Representative results are shown for the percent of live CD8+ T cells from the bioassay for IFNγ stimulation by cis-Bac430 and trans-Bac430 at a concentration range between 0.01-0.25 mM (FIG. 11C) or between 0.01-1 mM (FIG. 11D). P values calculated using Mann-Whitney U test compared to unstimulated negative control and PMA/Ionomycin-stimulated positive control. Representative results are shown for mean±SEM of fecal Bac430 concentration in μM normalized to stool weight from SPF, germ free (GF) or six-consort colonized germ free mice 2 weeks post-colonization (FIG. 11E) or for each member of the six-consort following 3 days anaerobic culture (FIG. 11F).
Feces collected from R mice were used as source material for high-throughput microbial isolation performed with the GALT Prospector technology. Bacterial identification was performed using MALDI-TOF Biotyper and Sanger sequencing. The cell free supernatants and <3 kDa small molecules of 183 Bacteroides isolates were screened for their ability to stimulate IFNγ production via a bioassay using primary CD8+ T cells and flow cytometric analysis. A consortium composed of six IFNγ-stimulating isolates or NR feces was transplanted into a gnotobiotic mouse model of lung cancer and treated with anti-PD-1, with or without anti-IFNγ monoclonal antibody depletion. Tumors were harvested at endpoint for flow cytometric analysis, and blood serum for IFNγ ELISA. […] Vacuum and high-performance liquid chromatography were used to identify fractions from the cell free supernatant of a single stimulating Bacteroides isolate which stimulate IFNγ production.
To summarize, small molecule characterization was performed using LC-MS/MS and computation pipelines for structural prediction. […]
In general terms: A flow cytometer gives signals particle by particle.

The test system of assay [2] is LLC subcutaneous allograft tumors. Kind of assay: Intratumoral injection of cis-Bac430 in combination with anti-PD-1 therapy in lung tumor-bearing mice. Format: in vivo. Here is the method:
FIGS. 12A-12G illustrate that intratumoral administration of cis-Bac430 in combination with anti-PD-1 therapy reduces tumor volume and enhances systemic anti-tumor immunity. An experimental schematic is shown for testing anti-PD-1 mediated anti-tumor effect in combination with intratumoral injection of cis-Bac430 or DMSO control (FIG. 12A). Representative results are shown for the growth curve of LLC subcutaneous allograft tumors receiving intratumoral injection of either cis-Bac430 (0.043 mg/mouse) or DMSO alone at the same time as anti-PD-1 treatment or saline control (FIG. 12n). Each point represents tumor volume mean±SEM. At day 20, P values are calculated by Mann-Whitney U test. Representative results are shown for the mean±SEM of tumor weight at the endpoint for mice treated with an anti-PD-1 monoclonal antibody or saline control that received intratumoral injection of either cis-Bac430 or DMSO (FIG. 12C). P values are calculated by Mann-Whitney U test. Representative results are shown for the mean±SEM of intratumoral CD8+ frequency at endpoint for mice treated with an anti-PD-1 monoclonal antibody or saline control that received intratumoral injection of either cis-Bac430 or DMSO (FIG. 12D). P values are calculated by Mann-Whitney U test. Representative results are shown for the mean±SEM of intratumoral IFNγ+CD8+ frequency at endpoint for mice treated with an anti-PD-1 monoclonal antibody or saline control that received intratumoral injection of either cis-Bac430 or DMSO (FIG. 12E). P values are calculated by Mann-Whitney U test. Representative results are shown for the mean±SEM of splenic CD8+ frequency at endpoint for mice treated with an anti-PD-1 monoclonal antibody or saline control that received intratumoral injection of either cis-Bac430 or DMSO (FIG. 12F). P values are calculated by Mann-Whitney U test. Representative results are shown for the mean±SEM of splenic IFNγ+CD8+ frequency at endpoint for mice treated with an anti-PD-1 monoclonal antibody or saline control that received intratumoral injection of either cis-Bac430 or DMSO (FIG. 12G). P values are calculated by Mann-Whitney U test.
Lung tumor-bearing mice were injected intratumorally with a 10 μL volume of either 10 mM (0.043 mg/dose) cis-Bac430 or DMSO on each day of anti-PD-1 therapy (FIG. 12A).

[3] abbreviates: combined with anti-PD-1, endpoint.
Where [4] appears, read: intratumoral 0.043 mg/dose on each day of anti-PD-1 therapy, compared to anti-PD-1 or DMSO injection.
Setting [5] is: intratumoral administration, endpoint.

Regarding `CCCCCC/C=C\CCCCCCCCCC(=O)N[C@@H](Cc1ccccc1)C(=O)O` [cis-Bac430], in assay [1] (higher concentrations), the “proliferative effect on CD8+ T cells (percent of live CD8+ T cells)” value is “mild proliferative effect”. The “IFNγ stimulation from primary splenic CD8+ T cells” value (“IFNγ stimulation” for short) in assay [1] is reported as “dose dependent bioactivity”. In addition, the “IFNγ stimulation” value in assay [1] (listed as Cis-Bac430) is on record as “robustly stimulate IFNγ”. For the same compound, in assay [2] (setting [3]), the “frequency of intratumoral CD8+ T cells” value is “increased frequency” and the “tumor infiltrating cytotoxic IFNγ+CD8+ T cells” value is “trend toward increased”. In assay [2] (setting [4]), the “tumor volume at endpoint” value is on record as “significantly smaller” and the “tumor weight at endpoint” value is on record as “significantly smaller”. In addition, in assay [2] (setting [5]), the “splenic IFNγ+CD8+ T cells” value is recorded as “trend toward increased” and the “splenic overall CD8+ T cell frequency” value is on record as “decreased”.

For the compound `CCCCCC/C=C/CCCCCCCCCC(=O)N[C@@H](Cc1ccccc1)C(=O)O` [trans-Bac430], the “IFNγ stimulation” value in assay [1] is on record as “does not demonstrate bioactivity”.
